Target: PD-L1 His protein / PD-1 Fc protein (Homo sapiens, UniProt Q9NZQ7)
Experiment: HTRF Assay (PD-1/PD-L1 interaction)
Assay type: binding
Conditions: PD-L1 His 6 nM, PD-1 Fc 6 nM
Method in brief: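 HTRF: PD-L1 His (6 nM final), compound (3-fold dilutions, 20 μM to 0.001 μM final) and PD-1 Fc (6 nM final) preincubated 15 min at room temperature. Anti-human IgG-XL665 and anti-6HIS Tb cryptate (mixed at 6.7 nM and 0.35 nM) then added for 1 h at room temperature before reading.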

Sequence of PD-L1 His protein / PD-1 Fc protein (Q9NZQ7 19-238 limits assumed): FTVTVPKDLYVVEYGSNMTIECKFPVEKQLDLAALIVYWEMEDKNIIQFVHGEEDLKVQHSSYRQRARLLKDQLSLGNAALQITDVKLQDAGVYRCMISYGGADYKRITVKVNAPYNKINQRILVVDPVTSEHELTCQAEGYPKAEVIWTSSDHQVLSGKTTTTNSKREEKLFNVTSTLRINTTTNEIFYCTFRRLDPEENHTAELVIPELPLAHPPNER

Row | Structure (SMILES) | IC50
1 | COc1nc(-c2cccc(-c3cccc(-c4ccc5c(n4)nc(CN[C@H]4C[C@H](O)C4)n5C)c3Cl)c2Cl)ccc1CN[C@H]1C[C@H](O)C1 [Example 313, (1r,3r)-3-(((6-(2,2′-Dichloro-3′-(2-((((1r,3r)-3-hydroxycyclobutyl)amino)methyl)-1-methyl-1H-imidazo[4,5-b]pyridin-5-yl)-[1,1′-biphenyl]-3-yl)-2-methoxypyridin-3-yl)methyl)amino)cyclobutan-1-ol] | 1.9 nM
2 | COc1nc(-c2cccc(-c3cccc(-c4ccc5nc(CNC[C@@H]6CCC(=O)N6)n(C)c5n4)c3Cl)c2Cl)ccc1CNC[C@@H]1CCC(=O)N1 [Example 314, (S)-5-((((6-(2,2′-Dichloro-3′-(3-methyl-2-(((((S)-5-oxopyrrolidin-2-yl)methyl)amino)methyl)-3H-imidazo[4,5-b]pyridin-5-yl)-[1,1′-biphenyl]-3-yl)-2-methoxypyridin-3-yl)methyl)amino)methyl)pyrrolidin-2-one] | 3.9 nM
3 | COc1nc(-c2cccc(-c3cccc(-c4ccc5nc(CN[C@H]6C[C@H](O)C6)n(C)c5n4)c3Cl)c2Cl)ccc1CN[C@H]1C[C@H](O)C1 [Example 315] | 0.4 nM
4 | COc1nc(-c2cccc(-c3cccc(-c4ccn5c(=O)c(CNCCCO)cnc5c4)c3Cl)c2Cl)ccc1CNC[C@@H]1CCC(=O)N1 [Example 316, (S)-8-(2,2′-Dichloro-3′-(6-methoxy-5-((((5-oxopyrrolidin-2-yl)methyl)-amino)methyl)-pyridin-2-yl)-[1,1′-biphenyl]-3-yl)-3-(((3-hydroxypropyl)amino)methyl)-4H-pyrido[1,2-a]pyrimidin-4-one] | 0.3 nM
5 | COc1nc(-c2cccc(-c3cccc(-c4ccn5c(=O)c(CN(C)CCCO)cnc5c4)c3Cl)c2Cl)ccc1CNC[C@@H]1CCC(=O)N1 [Example 317, (S)-8-(2,2′-Dichloro-3′-(6-methoxy-5-((((5-oxopyrrolidin-2-yl)methyl)amino)methyl)pyridin-2-yl)-[1,1′-biphenyl]-3-yl)-3-(((3-hydroxypropyl)(methyl)amino)methyl)-4H-pyrido[1,2-a]pyrimidin-4-one] | 0.2 nM
6 | COc1nc(-c2cccc(-c3cccc(-c4ccn5c(=O)c(CN(C)[C@H]6C[C@](C)(O)C6)cnc5c4)c3Cl)c2Cl)ccc1CNC[C@@H]1CCC(=O)N1 [Example 318, 8-(2,2′-Dichloro-3′-(6-methoxy-5-(((((S)-5-oxopyrrolidin-2-yl)methyl)-amino)-methyl)-pyridin-2-yl)-[1,1′-biphenyl]-3-yl)-3-((((1r,3r)-3-hydroxy-3-methylcyclobutyl)(methyl)amino)methyl)-4H-pyrido[1,2-a]pyrimidin-4-one] | 0.1 nM
7 | COc1nc(-c2cccc(-c3cccc(-c4ccn5c(=O)c(CN(C)C[C@H](C)O)cnc5c4)c3Cl)c2Cl)ccc1CNC[C@@H]1CCC(=O)N1 [Example 319, 8-[2-Chloro-3-[2-chloro-3-[6-methoxy-5-[[[(2S)-5-oxopyrrolidin-2-yl]methylamino]methyl]-2-pyridyl]phenyl]phenyl]-3-[[[(2S)-2-hydroxypropyl]-methyl-amino]methyl]pyrido[1,2-a]pyrimidin-4-one] | 0.1 nM
8 | COc1nc(-c2cccc(-c3cccc(-c4ccn5c(=O)c(CNCCN6CCCC6=O)cnc5c4)c3Cl)c2Cl)ccc1CNCCN1CCCC1=O [Example 321, 8-[2-Chloro-3-[2-chloro-3-[6-methoxy-5-[[2-(2-oxopyrrolidin-1-yl)ethylamino]methyl]-2-pyridyl]phenyl]phenyl]-3-[[2-(2-oxopyrrolidin-1-yl)ethylamino]methyl]pyrido[1,2-a]pyrimidin-4-one] | 0.2 nM
9 | COc1nc(-c2cccc(-c3cccc(-c4ccn5c(=O)c(CNC6CCN(C(C)=O)CC6)cnc5c4)c3Cl)c2Cl)ccc1CNC1CCN(C(C)=O)CC1 [Example 322, 3-[[(1-Acetyl-4-piperidyl)amino]methyl]-8-[3-[3-[5-[[(1-acetyl-4-piperidyl)amino]methyl]-6-methoxy-2-pyridyl]-2-chloro-phenyl]-2-chloro-phenyl]pyrido[1,2-a]pyrimidin-4-one] | 0.1 nM
10 | COc1nc(-c2cccc(-c3cccc(-c4cc(C)n5c(=O)c(C6=NCC(O)CN6)cnc5c4)c3Cl)c2Cl)ccc1CNC[C@@H]1CCC(=O)N1 (stereo partly drawn) [Example 323, 8-(2,2′-Dichloro-3′-(6-methoxy-5-(((((S)-5-oxopyrrolidin-2-yl)methyl)amino)methyl)pyridin-2-yl)-[1,1′-biphenyl]-3-yl)-3-(5-hydroxy-1,4,5,6-tetrahydropyrimidin-2-yl)-6-methyl-4H-pyrido[1,2-a]pyrimidin-4-one] | 5.9 nM
11 | COc1nc(-c2cccc(-c3cccc(-c4ccc5nc(CNC[C@H](C)O)cc(=O)n5c4)c3Cl)c2Cl)ccc1CNC[C@@H]1CCC(=O)N1 [Example 324, 7-(2,2′-Dichloro-3′-(6-methoxy-5-(((((S)-5-oxopyrrolidin-2-yl)methyl)amino)methyl)pyridin-2-yl)-[1,1′-biphenyl]-3-yl)-2-((((S)-2-hydroxypropyl)amino)methyl)-4H-pyrido[1,2-a]pyrimidin-4-one] | 5.7 nM
12 | COc1nc(-c2cccc(-c3cccc(-c4ccc5nc(CN[C@H]6C[C@](C)(O)C6)cc(=O)n5c4)c3Cl)c2Cl)ccc1CNC[C@@H]1CCC(=O)N1 [Example 325, 7-(2,2′-dichloro-3′-(6-methoxy-5-(((((S)-5-oxopyrrolidin-2-yl)methyl)amino)methyl)pyridin-2-yl)-[1,1′-biphenyl]-3-yl)-2-((((1r,3r)-3-hydroxy-3-methylcyclobutyl)amino)methyl)-4H-pyrido[1,2-a]pyrimidin-4-one] | 0.1 nM
13 | COc1nc(-c2cccc(-c3cccc(-c4ccn5c(=O)c(CN6CCNC(=O)CC6)cnc5c4)c3Cl)c2Cl)ccc1CNC[C@@H]1CCC(=O)N1 [Example 327, (S)-8-(2,2′-Dichloro-3′-(6-methoxy-5-((((5-oxopyrrolidin-2-yl)methyl)-amino)methyl)-pyridin-2-yl)-[1,1′-biphenyl]-3-yl)-3-((5-oxo-1,4-diazepan-1-yl)methyl)-4H-pyrido[1,2-a]pyrimidin-4-one] | 0.1 nM
14 | COc1nc(-c2cccc(-c3cccc(-c4ccn5c(=O)c(CN6CCC(CO)(CO)C6)cnc5c4)c3Cl)c2Cl)ccc1CNC[C@@H]1CCC(=O)N1 [Example 328, (S)-3-((3,3-Bis(hydroxymethyl)pyrrolidin-1-yl)methyl)-8-(2,2′-dichloro-3′-(6-methoxy-5-((((5-oxopyrrolidin-2-yl)methyl)amino)methyl)pyridin-2-yl)-[1,1′-biphenyl]-3-yl)-4H-pyrido[1,2-a]pyrimidin-4-one] | 0.1 nM
15 | COc1nc(-c2cccc(-c3cccc(-c4ccn5c(=O)c(CN6CC7(C6)CN(C(C)=O)C7)cnc5c4)c3Cl)c2Cl)ccc1CNC[C@@H]1CCC(=O)N1 [Example 329, (S)-3-((6-Acetyl-2,6-diazaspiro[3.3]heptan-2-yl)methyl)-8-(2,2′-dichloro-3′-(6-methoxy-5-((((5-oxopyrrolidin-2-yl)methyl)amino)methyl)pyridin-2-yl)-[1,1′-biphenyl]-3-yl)-4H-pyrido[1,2-a]pyrimidin-4-one] | 0.1 nM
16 | COc1nc(-c2cccc(-c3cccc(-c4ccc(CN(C=O)C[C@@H]5CCC(=O)N5)c(OC)n4)c3Cl)c2Cl)ccc1CNC[C@@H]1CCC(=O)N1 [Example 330, N-((6-(2,2′-Dichloro-3′-(6-methoxy-5-(((((S)-5-oxopyrrolidin-2-yl)methyl)amino)methyl)pyridin-2-yl)-[1,1′-biphenyl]-3-yl)-2-methoxypyridin-3-yl)methyl)-N—(((S)-5-oxopyrrolidin-2-yl)methyl)formamide] | 0.8 nM
17 | COc1nc(-c2cccc(-c3cccc(-c4cc5c(=O)n(C)c(CNC[C@@H]6CCC(=O)N6)nn5c4)c3Cl)c2Cl)ccc1CNC[C@@H]1CCC(=O)N1 [Example 331, 6-(2,2′-Dichloro-3′-(6-methoxy-5-(((((S)-5-oxopyrrolidin-2-yl)methyl)amino)methyl)pyridin-2-yl)-[1,1′-biphenyl]-3-yl)-3-methyl-2-(((((S)-5-oxopyrrolidin-2-yl)methyl)amino)methyl)pyrrolo[2,1-f][1,2,4]triazin-4(3H)-one] | 310 nM
18 | COc1nc(-c2cccc(-c3cccc(-c4cc5c(=O)n(C)c(CN[C@H]6C[C@](C)(O)C6)nn5c4)c3Cl)c2Cl)ccc1CNC[C@@H]1CCC(=O)N1 [Example 332, 6-(2,2′-Dichloro-3′-(6-methoxy-5-(((((S)-5-oxopyrrolidin-2-yl)methyl)amino)methyl)pyridin-2-yl)-[1,1′-biphenyl]-3-yl)-2-((((1r,3r)-3-hydroxy-3-methylcyclobutyl)amino)methyl)-3-methylpyrrolo[2,1-f][1,2,4]triazin-4(3H)-one] | 500 nM
19 | COc1nc(-c2cccc(-c3cccc(-c4cc5ncc(CNC[C@H](C)O)cc5cn4)c3Cl)c2Cl)ccc1CNC[C@@H]1CCC(=O)N1 [Example 333, (S)-5-((((6-(2,2′-Dichloro-3′-(3-((((S)-2-hydroxypropyl)amino)methyl)-1,6-naphthyridin-7-yl)-[1,1′-biphenyl]-3-yl)-2-methoxypyridin-3-yl)methyl)amino)methyl)pyrrolidin-2-one] | 0.7 nM
20 | COc1nc(-c2cccc(-c3cccc(-c4cc5ncc(CNCCO)cc5cn4)c3Cl)c2Cl)ccc1CNC[C@@H]1CCC(=O)N1 [Example 334, (S)-5-((((6-(2,2′-Dichloro-3′-(3-(((2-hydroxyethyl)amino)methyl)-1,6-naphthyridin-7-yl)-[1,1′-biphenyl]-3-yl)-2-methoxypyridin-3-yl)methyl)amino)methyl)pyrrolidin-2-one] | 0.1 nM
21 | COc1nc(-c2cccc(-c3cccc(-c4ccn5c(=O)c(CNC[C@@H]6CCC(=O)N6)cnc5c4)c3Cl)c2Cl)cc(Cl)c1CNC[C@@H]1CCC(=O)N1 [Example 335, 8-[2-Chloro-3-[2-chloro-3-[4-chloro-6-methoxy-5-[[[(2S)-5-oxopyrrolidin-2-yl]methylamino]methyl]-2-pyridyl]phenyl]phenyl]-3-[[[(2S)-5-oxopyrrolidin-2-yl]methylamino]methyl]pyrido[1,2-a]pyrimidin-4-one] | 2.1 nM
